Legend:
[1] = tested on: Mycobacterium tuberculosis (M. tuberculosis H37Rv); test: Antibacterial test (agar plate dilution method), M. tuberculosis H37Rv; format: cell-based; details: 336 h, 7H11 agar medium, about 10^6 CFU/mL, 37° C. for 14 days, read-out: minimum inhibitory concentration against M. tuberculosis H37Rv
[2] = tested on: Mycobacterium tuberculosis (M. tuberculosis Kurono); test: Antibacterial test (agar dilution method), M. tuberculosis Kurono; format: cell-based; details: Mycobacterium tuberculosis, 336 h; 7H11 agar medium, about 10^6 CFU/mL, 37° C. for 14 days; read-out: Minimum inhibitory concentration (MIC) kurono

SMILES	MIC [1] [µg/mL]	MIC [2] [µg/mL]	melting point [°C]
O=C1CCc2c(OC[C@]3(O)CCN(c4ccc(Cl)cc4F)C[C@H]3O)ccc(F)c2N1 [Example 259, 5-{[(3R,4R)-1-(4-Chloro-2-fluorophenyl)-3,4-dihydroxypiperidin-4-yl]methoxy}-8-fluoro-3,4-dihydroquinolin-2(1H)-one]	< 0.39	< 0.39	–
O=C1CCc2c(OCC3(O)CCN(c4ccc(Cl)cc4F)CC3)ccc(F)c2N1 [Example 52, 5-{[1-(4-Chloro-2-fluorophenyl)-4-hydroxypiperidin-4-yl]methoxy}-8-fluoro-3,4-dihydroquinolin-2(1H)-one]	–	< 0.39	190.6 to 190.7
O=C1CCc2c(OC[C@]3(O)CCN(c4c(F)cc(Cl)cc4F)C[C@H]3F)ccc(F)c2N1 [Example 448, 5-{[(3R,4R)-1-(4-Chloro-2,6-difluorophenyl)-3-fluoro-4-hydroxypiperidin-4-yl]methoxy}-8-fluoro-3,4-dihydroquinolin-2(1H)-one]	–	< 0.39	207 to 209
O=C1CCc2c(OCC3(O)CCN(c4ccc(OCc5ccc(OC(F)(F)F)cc5)cc4F)CC3)ccc(F)c2N1 [Example 152, 8-Fluoro-5-{[1-(2-fluoro-4-{[4-(trifluoromethoxy)benzyl]oxy}phenyl)-4-hydroxypiperidin-4-yl]methoxy}-3,4-dihydroquinolin-2(1H)-one]	–	< 0.39	199.9 to 200.5
O=C1CCc2c(cccc2OC[C@]2(O)CCN(c3ccc(Br)cc3F)C[C@H]2O)N1 [Example 347, 5-{[(3R,4R)-1-(4-Bromo-2-fluorophenyl)-3,4-dihydroxypiperidin-4-yl]methoxy}-3,4-dihydroquinolin-2(1H)-one]	–	< 0.39	226 to 227
O=C1CCc2c(OC[C@@]3(O)CCN(c4c(F)cc(Cl)cc4F)C[C@@H]3F)ccc(F)c2N1 [Example 449, 5-{[(3S,4S)-1-(4-Chloro-2,6-difluorophenyl)-3-fluoro-4-hydroxypiperidin-4-yl]methoxy}-8-fluoro-3,4-dihydroquinolin-2(1H)-one]	–	< 0.39	209 to 210
O=C1CCc2c(OCC3(O)CCN(c4c(F)cc(Cl)cc4F)CC3)ccc(Cl)c2N1 [Example 102, 8-Chloro-5-{[1-(4-chloro-2,6-difluorophenyl)-4-hydroxypiperidin-4-yl]methoxy}-3,4-dihydroquinolin-2(1H)-one]	–	< 0.39	181 to 181.2
COCCOc1cc(N2CCC(O)(COc3ccc(Cl)c4c3CCC(=O)N4)CC2)c(F)cc1Cl [Example 175, 8-Chloro-5-({1-[4-chloro-2-fluoro-5-(2-methoxyethoxy)phenyl]-4-hydroxypiperidin-4-yl}methoxy)-3,4-dihydroquinolin-2(1H)-one]	–	< 0.39	143.5 to 145.1
O=C1CCc2c(OC[C@@]3(O)CCN(c4ccc(Br)cc4F)C[C@H]3O)ccc(Cl)c2N1 [Example 364, 5-{[(3R,4S)-1-(4-Bromo-2-fluorophenyl)-3,4-dihydroxypiperidin-4-yl]methoxy}-8-chloro-3,4-dihydroquinolin-2(1H)-one]	–	< 0.39	185.8 to 186
O=c1ccc2c(OCC3(O)CCN(c4ccc(Cl)cc4F)CC3)cccc2[nH]1 [Example 138, 5-{[1-(4-Chloro-2-fluorophenyl)-4-hydroxypiperidin-4-yl]methoxy}quinolin-2(1H)-one]	–	< 0.39	275.7 to 277
O=C1CCc2c(SCC3(O)CCN(c4ccc(Cl)cc4F)CC3)ccc(F)c2N1 [Example 460, 5-({[1-(4-Chloro-2-fluorophenyl)-4-hydroxypiperidin-4-yl]methyl}sulfanyl)-8-fluoro-3,4-dihydroquinolin-2(1H)-one]	–	< 0.39	171 to 172

— US10464926B2, “Heterobicyclic compounds and their use for the treatment of tuberculosis” (OTSUKA PHARMACEUTICAL CO., LTD., priority 2014, dated 2019)
